Test systems include Escherichia coli TOP 10; Escherichia coli NDM; Pseudomonas aeruginosa; Staphylococcus aureus; Aeromonas salmonicida; Vibrio anguillarum.
Common to all, as to assay: ≥ marks a high value that may be exact or a test limit, other limits are often not marked, values filed in µg/mL are converted to µM
Assay [1] deals with Escherichia coli ATCC 25922.
Assay [2] has as its system Escherichia coli ATCC 9723H.
The subject of assay [3] is Staphylococcus aureus ATCC 6538P.
Assay [4] relates to Candida albicans NCYC 1467.
For assay [5], the system named is Enterococcus faecalis NCTC 12697.
Assay [6] concerns Escherichia coli ATCC 8739.
Assay [7] relates to Escherichia coli ATCC BAA-2340.
For assay [8], the system named is Escherichia coli NCTC 10418.
The subject of assay [9] is Klebsiella pneumoniae ATCC 43816.
Assay [10] concerns Klebsiella pneumoniae ATCC BAA-1705.
Assay [11] concerns Klebsiella pneumoniae ATCC BAA-2342.
In assay [12] the test system is Pseudomonas aeruginosa ATCC 27853.
For assay [13], the system named is Pseudomonas aeruginosa ATCC 9027.
The subject of assay [14] is Staphylococcus aureus ATCC 12493.
Assay [15] concerns Staphylococcus aureus ATCC 6538.
Assay [16] relates to Staphylococcus aureus NCTC 10788.
For assay [17], the system named is Mannheimia haemolytica 82-25.
Assay [18] deals with Pseudomonas aeruginosa K799.
The subject of assay [19] is Pseudomonas aeruginosa Z61.
Assay [20] relates to Salmonella enterica serovar typhimurium MS7953s.
In assay [21] the test system is Salmonella enterica subsp. enterica serovar Typhimurium ATCC 14028s.
The subject of assay [22] is Staphylococcus epidermidis C621.
Assay [23] concerns Candida albicans ATCC 90028.
Assay [24] deals with Enterococcus faecium ATCC 29212.
The test system of assay [25] is Escherichia coli O157:H7 ATCC 43895.
Assay [26] deals with Malassezia furfur KCTC 7744.
Assay [27] has as its system Staphylococcus aureus ATCC 25923.
The test system of assay [28] is Streptococcus mutans KCTC 3065.
The subject of assay [29] is Trichosporon beigelii KCTC 7707.
For assay [30], the system named is Vibrio vulnificus ATCC 29307.

SMILES strings stand for the structures. Values after ≈ are worked out from the molar mass of the structure shown. Bounds are passed on as bounds.

Take `CC[C@H](C)[C@H](NC(=O)[C@@H](N)CCC(=O)O)C(=O)N[C@@H](CCC(=O)O)C(=O)N[C@@H](Cc1ccc(O)cc1)C(=O)NCC(=O)N[C@@H](CC(N)=O)C(=O)N1CCC[C@H]1C(=O)NCC(=O)N[C@H](C(=O)NCC(=O)N[C@H](C(=O)N[C@@H](CC(=O)O)C(=O)N[C@@H](CCCN=C(N)N)C(N)=O)[C@@H](C)O)C(C)C` [EIEYGNPGVGTDR]: the minimal inhibitory concentration (MIC) (in general, the lowest concentration found to suppress growth) with Escherichia coli TOP 10 was at least 71.1 µM.
`CC[C@H](C)[C@H](NC(=O)[C@@H](NC(=O)[C@@H]1CCCN1C(=O)[C@H](CC(C)C)NC(=O)[C@H](Cc1ccccc1)NC(=O)[C@H](CCCCN)NC(=O)[C@H](CC(N)=O)NC(=O)[C@H](C)NC(=O)[C@H](CC(C)C)NC(=O)[C@@H]1CCCN1C(=O)[C@H](CC(C)C)NC(=O)[C@@H](NC(=O)[C@H](CCCN=C(N)N)NC(=O)[C@@H]1CCCN1C(=O)[C@H](Cc1ccccc1)NC(=O)[C@@H](N)Cc1ccccc1)C(C)C)[C@@H](C)O)C(=O)N[C@@H](Cc1ccc(O)cc1)C(=O)N[C@@H](CS)C(=O)N[C@@H](C)C(=O)N[C@@H](CC(C)C)C(=O)N1CCC[C@H]1C(=O)N[C@@H](CCCCN)C(=O)N[C@@H](CO)C(=O)N[C@H](C(=O)NCC(=O)N[C@@H](CC(N)=O)C(=O)O)C(C)C` [FFPRVLPLANKFLPTIYCALPKSVGN]: the minimum inhibitory concentration (MIC) in [1] is 6 µM (≈ 17.4 µg/mL); in assay [2], 15.6 µM (≈ 45.2 µg/mL); against Escherichia coli NDM, 6 µM (≈ 17.4 µg/mL); in [3], at least 88 µM.
Regarding `CC[C@H](C)[C@H](NC(=O)CNC(=O)CNC(=O)[C@H](C)NC(=O)[C@@H](NC(=O)[C@H](CCCCN)NC(=O)[C@@H]1CCCN1C(=O)[C@@H](NC(=O)[C@H](CC(C)C)NC(=O)[C@H](CO)NC(=O)[C@H](CC(C)C)NC(=O)[C@@H](N)Cc1ccccc1)[C@@H](C)CC)[C@@H](C)CC)C(=O)N[C@@H](C)C(=O)N[C@@H](C)C(=O)N[C@@H](CC(C)C)C(=O)N[C@H](C(=O)N[C@@H](CCCCN)C(=O)N[C@@H](CC(N)=O)C(=O)N[C@@H](CC(C)C)C(N)=O)C(C)C` [FLSLIPKIAGGIAALVKNL], the MIC in assay [4] is 8 µM (≈ 15.5 µg/mL); in [5], at least 32 µM; in assay [6], at least 128 µM; in assay [7], at least 64 µM; in [8], at least 32 µM; in assay [9] it was at least 64 µM. Besides, the MIC in assay [10] is at least 256 µM; in [11] it was at least 128 µM; in assay [12] it was 128 µM (≈ 248 µg/mL); in assay [13], 256 µM (≈ 496 µg/mL); in the assay with Pseudomonas aeruginosa, over 512 µM; in assay [14], 4 µM (≈ 7.75 µg/mL). Also, the MIC worked out at 2 µM (≈ 3.87 µg/mL) in [15], 4 µM (≈ 7.75 µg/mL) in [16] and 8 µM (≈ 15.5 µg/mL) with Staphylococcus aureus.
In turn, `NCCCC[C@H](NC(=O)[C@H](CC(=O)O)NC(=O)[C@H](CC(=O)O)NC(=O)[C@H](CC(=O)O)NC(=O)CN)C(=O)O` [GDDDK] showed an MIC in [17] of at least 200 µM.
Regarding `CC(C)C[C@H](NC(=O)[C@H](C)NC(=O)[C@H](C)NC(=O)[C@H](CCCCN)NC(=O)CNC(=O)[C@@H](NC(=O)[C@H](Cc1cnc[nH]1)NC(=O)[C@H](CCCCN)NC(=O)CNC(=O)[C@@H](NC(=O)[C@H](Cc1cnc[nH]1)NC(=O)[C@H](C)NC(=O)[C@H](C)NC(=O)[C@H](CCCCN)NC(=O)[C@H](CCCCN)NC(=O)[C@H](Cc1ccccc1)NC(=O)[C@H](Cc1ccccc1)NC(=O)[C@H](CO)NC(=O)CNC(=O)[C@H](Cc1c[nH]c2ccccc12)NC(=O)CN)C(C)C)C(C)C)C(=O)NCC(=O)N[C@@H](C)C(=O)N[C@@H](C)C(=O)N[C@@H](C)C(=O)N[C@@H](CCCN=C(N)N)C(=O)N[C@@H](CCCN=C(N)N)C(=O)N[C@@H](CCCN=C(N)N)C(=O)N[C@@H](CCCCN)C(=O)O` [GWGSFFKKAAHVGKHVGKAALGAAARRRK], the minimum inhibitory concentration (MIC) was determined as 0.326 µM (≈ 1 µg/mL) against Aeromonas salmonicida; 5.22 µM (≈ 16 µg/mL) in assay [18]; 5.22 µM (≈ 16 µg/mL) in assay [19]; 0.163 µM (≈ 0.5 µg/mL) in [20]; 5.22 µM (≈ 16 µg/mL) in assay [21]; 5.22 µM (≈ 16 µg/mL) in assay [22]. This compound registered an MIC in the assay with Vibrio anguillarum of 10.4 µM (≈ 32 µg/mL).
As to `CC(C)C[C@H](N)C(=O)N[C@@H](CCCN=C(N)N)C(=O)N[C@@H](CCC(N)=O)C(=O)N[C@@H](CO)C(=O)N[C@@H](CCC(N)=O)C(=O)N[C@@H](Cc1ccccc1)C(=O)N[C@H](C(=O)NCC(=O)N[C@@H](CO)C(=O)N[C@@H](CCCN=C(N)N)C(N)=O)C(C)C` [LRQSQFVGSR], the minimum inhibitory concentration (MIC) in assay [23] is at least 42.5 µM; in [24], 21.3 µM (≈ 25.1 µg/mL); in assay [25], 10.6 µM (≈ 12.5 µg/mL); in assay [26], at least 42.5 µM; in assay [12], 21.3 µM (≈ 25.1 µg/mL); in assay [27], 42.5 µM (≈ 50 µg/mL). The values for the MIC in assay [28], in [29] and in [30] were 21.3 µM (≈ 25.1 µg/mL), 21.3 µM (≈ 25.1 µg/mL) and at least 42.5 µM, respectively.

The values above are taken from DBAASP.
